Where a name gives a salt, the structure may show the parent alone.

This test concerns the target T1, human recombinant P2X7 receptor (Homo sapiens, UniProt Q99572).
T1 construct: expressed in transfected cells
T1 sequence (Q99572 1-595): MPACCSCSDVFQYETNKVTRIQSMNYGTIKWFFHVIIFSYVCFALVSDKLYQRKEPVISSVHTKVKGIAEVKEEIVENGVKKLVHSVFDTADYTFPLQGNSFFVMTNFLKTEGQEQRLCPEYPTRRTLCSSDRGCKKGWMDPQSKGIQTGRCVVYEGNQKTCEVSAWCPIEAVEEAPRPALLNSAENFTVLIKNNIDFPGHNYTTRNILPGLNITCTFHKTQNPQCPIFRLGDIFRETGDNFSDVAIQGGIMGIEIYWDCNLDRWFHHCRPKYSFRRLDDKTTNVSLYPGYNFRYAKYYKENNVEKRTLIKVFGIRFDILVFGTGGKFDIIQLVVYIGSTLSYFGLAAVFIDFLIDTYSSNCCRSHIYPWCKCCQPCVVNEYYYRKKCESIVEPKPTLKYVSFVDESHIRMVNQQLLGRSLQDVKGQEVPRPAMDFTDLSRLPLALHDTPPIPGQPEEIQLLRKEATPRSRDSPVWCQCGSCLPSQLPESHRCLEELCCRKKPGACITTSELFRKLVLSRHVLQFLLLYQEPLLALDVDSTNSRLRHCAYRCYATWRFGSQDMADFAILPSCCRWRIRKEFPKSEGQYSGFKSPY
The test is described as follows: YO-PRO assay: P2X7 receptor antagonistic activity in HEK cells stably expressing P2X7. Type of test: cell-based. The note with it: antagonistic activity with respect to the P2X7 receptor, read-out: IC50. As for the experimental part:
The P2X7 receptor antagonistic activity of the compounds of formula (I) is determined in accordance with the following experimental method.
Cell Line Generation and YO-PRO Assay
Cell line generation was performed in general according to established molecular cloning protocols. Specifically, RNA was extracted from human whole blood using the Qiagen RNeasy kit (Qiagen, CH) according to the manufacturer's instructions. Subsequently cDNA was made (Superscript II, Invitrogen AG, CH) and the human P2X7 gene (genbank ref. BC011913) was amplified with the following primers: […] and […]. The amplified sequence was subsequently ligated into a pcDNA3.1 (+) NotI, NheI digested plasmid. Human embryonic kidney (HEK) cells (ATCC CRL—1573, Manassas, Va., USA) were transfected with the pcDNA3.1 (+).hP2X7 plasmid using lipofectamine 2000 (Invitrogen AG, CH) according to the manufacturer's instructions. Following a 24 h exposure to DNA, cells were trypsinized and re-seeded at low density in the presence of 250 μg Geneticin. Geneticin resistant cells were then selected during two consecutive rounds of cloning by serial limiting dilution with visual inspection. Individual clones were screened for P2X7 expression by applying ATP and recording the resultant uptake of YO-PRO1. Specific cell clones were chosen based on RNA and protein expression. HEK cells stably expressing P2X7 were used to screen drugs using the YO-PRO1 assay. Cells were grown to confluency in adherent culture at 37° C. in a humidified 5% CO2 incubator (split 1/5 every 3-4 days with DMEM, 10% FCS, 1% Penicillin/Streptomycin, 250 μg/ml Geneticin). Adherent cells were detached by incubation with Trypsine (1 ml per 165 cm^2 dish) for 2 minutes, then washed off with 10 ml PBS (without Mg^2+ and Ca^2+), and resuspended in DMEM, 10% FCS, 1% Penicillin/Streptomycin, no Geneticin. 10′000 cells per well (48 hours before the assay) or 25′000 cells per well (Vi-cell XR (Beckman Coulter) (24 hours before the assay) in 50 μl full medium were seeded on 384-well black-wall, clear bottom plates, that were coated before with 10 μl per well Poly-L-Lysine, incubated for 30-60 minutes at 37° C. and washed once with PBS. Medium was removed from cells and 50 μl of assay buffer containing 0.5 μM YO-PRO-1 was added into the wells. Solutions of antagonist compounds were prepared by serial dilutions of a 10 mM DMSO solution of the antagonist into PBS using a BioMek (Beckman Coulter). Each concentration was performed in duplicate. For IC50 measurements 10 concentration points were measured (10 μM being the highest concentration followed by 9 serial dilution steps 1/3). The cells were incubated with the antagonists of the present invention together with ATP at a final concentration of 250 μM for 90 minutes. During this time period, four time points were taken. Each time point comprised the average of several measurements made within a few seconds. Fluorescence was measured in the FLIPR tetra (Molecular Devices) using the filters appropriate for YO-PRO-1 fluorescence (excitation 485/20, emission 530/25). The FLIPR tetra was equipped with Molecular Devices Screen Works system control software to define and run experimental protocols. […] For IC50 measurements the maximum intensity is plotted against the concentration of compound to determine IC50 values.
For the compound `Cc1ncc([C@H](CNC(=O)c2ccc3[nH]ccc3c2Cl)N2CCCCC2C)cn1` (mixture of isomers) [Example 77, 4-Chloro-1H-indole-5-carboxylic acid [(R)-2-(2-methyl-piperidin-1-yl)-2-(2-methyl-pyrimidin-5-yl)-ethyl]-amide], the IC50 – broadly, the point on the concentration scale where inhibition reaches its midpoint – worked out at 87 nM.

Consider `O=C(NCC(c1cnc(C(F)(F)F)nc1)N1CCOCC1)c1ccc2[nH]ccc2c1Cl` (racemic) [Example 1, rac-4-Chloro-1H-indole-5-carboxylic acid [2-morpholin-4-yl-2-(2-trifluoromethyl-pyrimidin-5-yl)-ethyl]-amide], for which the IC50 was determined as 3.9 nM.

On to `O=C(NCC(c1ccc(Cl)nc1)N1CCC(F)(F)CC1)c1ccc2[nH]ccc2c1Cl` (racemic) [Example 2, rac-4-Chloro-1H-indole-5-carboxylic acid [2-(6-chloro-pyridin-3-yl)-2-(4,4-difluoro-piperidin-1-yl)-ethyl]-amide], for which the IC50 amounted to 4.3 nM.

With `Cc1ccc(C(CNC(=O)c2ccc3[nH]ccc3c2Cl)N2CCOCC2)cn1` (racemic) [Example 7, rac-4-Chloro-1H-indole-5-carboxylic acid [2-(6-methyl-pyridin-3-yl)-2-morpholin-4-yl-ethyl]-amide], the IC50 turned out to be 19 nM.

Regarding `O=C(NCC(c1cnc(C(F)(F)F)nc1)N1CCC(F)(F)CC1)c1ccc2[nH]ccc2c1Cl` (racemic) [Example 8, rac-4-Chloro-1H-indole-5-carboxylic acid [2-(4,4-difluoro-piperidin-1-yl)-2-(2-trifluoromethyl-pyrimidin-5-yl)-ethyl]-amide], the IC50 was 12 nM.

`O=C(NCC(c1cnc(C2CC2)nc1)N1CCOCC1)c1ccc2[nH]ccc2c1Cl` (racemic) [Example 9, rac-4-Chloro-1H-indole-5-carboxylic acid [2-(2-cyclopropyl-pyrimidin-5-yl)-2-morpholin-4-yl-ethyl]-amide]: the IC50 was determined as 7.7 nM.

As for `O=C(NCC(c1ccc(C(F)(F)F)nc1)N1CCOCC1)c1ccc2[nH]ccc2c1Cl` (racemic) [Example 10, rac-4-Chloro-1H-indole-5-carboxylic acid [2-morpholin-4-yl-2-(6-trifluoromethyl-pyridin-3-yl)-ethyl]-amide], the IC50 turned out to be 5.1 nM.

In the case of `COc1ccc(C(CNC(=O)c2ccc3[nH]ccc3c2Cl)N2CCOCC2)cn1` (racemic) [Example 11, rac-4-Chloro-1H-indole-5-carboxylic acid [2-(6-methoxy-pyridin-3-yl)-2-morpholin-4-yl-ethyl]-amide], the IC50 was determined as 14 nM.

Take `Cc1ncc(C(CNC(=O)c2ccc3[nH]ccc3c2Cl)N(C)C)cn1` (racemic) [Example 12, rac-4-Chloro-1H-indole-5-carboxylic acid [2-dimethylamino-2-(2-methyl-pyrimidin-5-yl)-ethyl]-amide]: the half-maximal inhibitory concentration (IC50) stood at 2300 nM.

With `Cc1ncc(C(CNC(=O)c2ccc3[nH]ccc3c2Cl)N2CCC2)cn1` (racemic) [Example 13, rac-4-Chloro-1H-indole-5-carboxylic acid [2-azetidin-1-yl-2-(2-methyl-pyrimidin-5-yl)-ethyl]-amide], the 50% inhibitory concentration (IC50) is 831 nM.

Regarding `Cc1ncc(C(CNC(=O)c2ccc3[nH]ccc3c2Cl)N2CCCC2)cn1` (racemic) [Example 14, rac-4-Chloro-1H-indole-5-carboxylic acid [2-(2-methyl-pyrimidin-5-yl)-2-pyrrolidin-1-yl-ethyl]-amide], the IC50 turned out to be 286 nM.

Consider `CCN(CC)C(CNC(=O)c1ccc2[nH]ccc2c1Cl)c1cnc(C)nc1` (racemic) [Example 15, rac-4-Chloro-1H-indole-5-carboxylic acid [2-diethylamino-2-(2-methyl-pyrimidin-5-yl)-ethyl]-amide], for which the IC50 is 85 nM.

As for `Cc1ncc(C(CNC(=O)c2ccc3[nH]ccc3c2Cl)N2CCCCC2)cn1` (racemic) [Example 16, rac-4-Chloro-1H-indole-5-carboxylic acid [2-(2-methyl-pyrimidin-5-yl)-2-piperidin-1-yl-ethyl]-amide], the IC50 was found to be 9.7 nM.

Take `O=C(NCC(c1ccc(F)cc1)N1CCOCC1)c1ccc2[nH]ccc2c1Cl` (racemic) [Example 17, rac-4-Chloro-1H-indole-5-carboxylic acid [2-(4-fluoro-phenyl)-2-morpholin-4-yl-ethyl]-amide]: the IC50 amounted to 9.2 nM.

In the case of `O=C(NCC(c1cc(F)cc(F)c1)N1CCOCC1)c1ccc2[nH]ccc2c1Cl` (racemic) [Example 18, rac-4-Chloro-1H-indole-5-carboxylic acid [2-(3,5-difluoro-phenyl)-2-morpholin-4-yl-ethyl]-amide], the IC50 was found to be 19 nM.

In the case of `CC(C)(C)OC(=O)N1CCC(C(CNC(=O)c2ccc3[nH]ccc3c2Cl)c2cccnc2)CC1` (racemic) [Example 19, rac-4-{2-[(4-Chloro-1H-indole-5-carbonyl)-amino]-1-pyridin-3-yl-ethyl}-piperidine-1-carboxylic acid tent-butyl ester], the IC50 turned out to be 35 nM.

With `O=C(NCC(c1cccnc1)C1CCNCC1)c1ccc2[nH]ccc2c1Cl` (racemic) [Example 20, rac-4-Chloro-1H-indole-5-carboxylic acid (2-piperidin-4-yl-2-pyridin-3-yl-ethyl)-amide dihydrochloride], the 50% inhibitory concentration (IC50) came to 447 nM.

`CN1CCC(C(CNC(=O)c2ccc3[nH]ccc3c2Cl)c2cccnc2)CC1` (racemic) [Example 21, rac-4-Chloro-1H-indole-5-carboxylic acid [2-(1-methyl-piperidin-4-yl)-2-pyridin-3-yl-ethyl]-amide formic acid salt]: the IC50 was found to be 584 nM.

Consider `CC(=O)N1CCC(C(CNC(=O)c2ccc3[nH]ccc3c2Cl)c2cccnc2)CC1` (racemic) [Example 22, rac-4-Chloro-1H-indole-5-carboxylic acid [2-(1-acetyl-piperidin-4-yl)-2-pyridin-3-yl-ethyl]-amide], for which the IC50 came out at 126 nM.

Regarding `CS(=O)(=O)N1CCC(C(CNC(=O)c2ccc3[nH]ccc3c2Cl)c2cccnc2)CC1` (racemic) [Example 23, rac-4-Chloro-1H-indole-5-carboxylic acid [2-(1-methanesulfonyl-piperidin-4-yl)-2-pyridin-3-yl-ethyl]-amide], the IC50 was determined as 56 nM.

With `O=C(NCC(c1ccc(Cl)nc1)N1CCOCC1)c1ccc2[nH]ccc2c1Cl` (racemic) [Example 24, rac-4-Chloro-1H-indole-5-carboxylic acid [2-(6-chloro-pyridin-3-yl)-2-morpholin-4-yl-ethyl]-amide], the half-maximal inhibitory concentration (IC50) is 4.7 nM.

For `O=C(NCC(c1cccnc1)N1CCOCC1)c1ccc2[nH]ccc2c1Cl` (racemic) [Example 25, rac-4-Chloro-1H-indole-5-carboxylic acid (2-morpholin-4-yl-2-pyridin-3-yl-ethyl)-amide], the IC50 was 32 nM.

Regarding `O=C(NCC(c1cncnc1)N1CCOCC1)c1ccc2[nH]ccc2c1Cl` (racemic) [Example 26, rac-4-Chloro-1H-indole-5-carboxylic acid (2-morpholin-4-yl-2-pyrimidin-5-yl-ethyl)-amide], the IC50 amounted to 10 nM.

For the origin of these results see patent US9718774B2, “Indole carboxamide derivatives as P2X7 receptor antagonist” (ACTELION PHARMACEUTICALS LTD, priority 2012, dated 2017).
